In general, IC50 refers to the concentration that gives 50% inhibition. A low value points to higher potency.

Holding throughout (assay type): biochemical
The target in one experiment is JAK3 (Homo sapiens (Human), UniProt P52333). Kind of experiment: In vitro JAK kinase assay (TR-FRET), JAK3. The settings on record: catalytic domain aa 795-1124, GST-fusion; ATP 0.6 μM; peptide 140 nM; 30 minutes at room temperature. In outline: (§1)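 Each human JAK enzyme assayed on biotinylated poly(GT) peptide substrate, reaction 30 min at room temperature. Phosphorylation detected by TR-FRET after a 3 h detection incubation.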
JAK3, sequence (P52333 795-1124): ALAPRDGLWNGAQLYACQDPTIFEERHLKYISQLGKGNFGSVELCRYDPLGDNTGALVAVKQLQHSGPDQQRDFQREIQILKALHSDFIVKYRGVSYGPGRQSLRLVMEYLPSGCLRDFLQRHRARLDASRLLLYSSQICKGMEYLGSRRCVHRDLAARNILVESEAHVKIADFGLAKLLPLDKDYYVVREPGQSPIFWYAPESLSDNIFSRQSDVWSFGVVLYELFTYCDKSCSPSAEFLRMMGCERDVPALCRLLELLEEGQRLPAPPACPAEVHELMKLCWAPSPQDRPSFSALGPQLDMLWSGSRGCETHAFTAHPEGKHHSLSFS
(In TR-FRET formats the signal depends on donor and acceptor labels being close together.)

For a further experiment, the target named is JAK2 (Homo sapiens (Human), UniProt O60674). Kind of experiment: In vitro JAK kinase assay (TR-FRET), JAK2. The settings on record: catalytic domain aa 826-1132, GST-fusion; ATP 0.2 μM; peptide 20 nM; 30 minutes at room temperature. In outline: as §1
JAK2, sequence (O60674 826-1132): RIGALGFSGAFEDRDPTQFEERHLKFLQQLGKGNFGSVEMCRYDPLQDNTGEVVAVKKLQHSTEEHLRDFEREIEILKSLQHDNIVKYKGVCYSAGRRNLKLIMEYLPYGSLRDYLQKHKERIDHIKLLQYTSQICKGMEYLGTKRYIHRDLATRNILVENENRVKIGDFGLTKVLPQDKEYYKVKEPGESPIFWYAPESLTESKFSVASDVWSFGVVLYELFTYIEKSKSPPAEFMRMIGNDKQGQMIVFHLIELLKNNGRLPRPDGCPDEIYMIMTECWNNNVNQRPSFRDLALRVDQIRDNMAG
A further experiment concerns the target JAK1 (Homo sapiens (Human), UniProt P23458). Kind of experiment: In vitro JAK kinase assay (TR-FRET), JAK1. Conditions: catalytic domain aa 850-1154, GST-fusion; ATP 3 μM; peptide 60 nM; 30 minutes at room temperature. The method in brief:
as §1

JAK1, sequence (P23458 850-1154): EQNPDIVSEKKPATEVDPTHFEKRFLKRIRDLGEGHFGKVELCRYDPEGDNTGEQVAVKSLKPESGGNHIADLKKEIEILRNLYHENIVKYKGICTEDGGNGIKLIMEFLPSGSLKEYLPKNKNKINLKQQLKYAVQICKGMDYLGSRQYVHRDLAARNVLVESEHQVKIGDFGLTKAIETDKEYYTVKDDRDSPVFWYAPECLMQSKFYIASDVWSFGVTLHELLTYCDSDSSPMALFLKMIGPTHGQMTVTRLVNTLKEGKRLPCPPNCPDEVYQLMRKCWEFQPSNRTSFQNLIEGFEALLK

On to `O=C(CO)N1CCC[C@@H](Nc2nc(-c3cnn4ccccc34)nc(-c3cncc(CO)c3)c2F)C1` [Example 88, 2-[(3R)-3-({5-Fluoro-6-[5-(hydroxymethyl)pyridin-3-yl]-2-pyrazolo[1,5-a]pyridin-3-ylpyrimidin-4-yl}amino)piperidin-1-yl]-2-oxoethanol], for which the IC50 is 4 nM on JAK3, 1 nM against JAK2 and 14 nM against JAK1.

For the molecule `N#CCC(=O)N1CCC[C@@H](Nc2nc(-c3cnn4ccccc34)nc(-c3cncc(CO)c3)c2F)C1` [Example 89, 3-[(3R)-3-({5-Fluoro-6-[5-(hydroxymethyl)pyridin-3-yl]-2-pyrazolo[1,5-a]pyridin-3-ylpyrimidin-4-yl}amino)piperidin-1-yl]-3-oxopropanenitrile], the IC50 at JAK3 was 3 nM; against JAK2 it was 1 nM; at JAK1, 5 nM.

With `C[C@H](O)COc1nc(-c2cnn3ccccc23)nc(O[C@@H]2CCCN(C(=O)CO)C2)c1F` [Example 90, (2S)-1-[(5-Fluoro-6-{[(3R)-1-glycoloylpiperidin-3-yl]oxy}-2-pyrazolo[1,5-a]pyridin-3-ylpyrimidin-4-yl)oxy]propan-2-ol], the values for the concentration for half-maximal inhibition (IC50) against JAK3, on JAK2 and at JAK1 were 4 nM, 1 nM and 14 nM, respectively.

With `COC[C@@H](C)Oc1nc(-c2cnn3ccccc23)nc(N[C@@H]2CCCN(c3cnc(C#N)cn3)C2)c1F` [Example 91, 5-[(3R)-3-({5-Fluoro-6-[(1R)-2-methoxy-1-methylethoxy]-2-pyrazolo[1,5-a]pyridin-3-ylpyrimidin-4-yl}amino)piperidin-1-yl]pyrazine-2-carbonitrile], the IC50 was 5 nM at JAK3, 2 nM on JAK2 and 114 nM against JAK1.

Take `CC(C)OC(=O)c1nc(-c2cnn3ccccc23)nc(N[C@@H]2CCCN(C(=O)CO)C2)c1F` [Example 92, Isopropyl 5-fluoro-6-{[(3R)-1-glycoloylpiperidin-3-yl]amino}-2-pyrazolo[1,5-a]pyridin-3-ylpyrimidine-4-carboxylate]: the half-maximal inhibitory concentration (IC50) against JAK3 is 4 nM; at JAK2, 1 nM; on JAK1 it was 12 nM.

On to `COc1nc(-c2cnn3ccccc23)nc(N[C@@H]2CCCN(C(=O)CO)C2)c1C` [Example 93, 2-{(3R)-3-[(6-Methoxy-5-methyl-2-pyrazolo[1,5-a]pyridin-3-ylpyrimidin-4-yl)amino]piperidin-1-yl}-2-oxoethanol], for which the IC50 amounted to 6 nM at JAK3, 3 nM on JAK2 and 23 nM against JAK1.

For the molecule `COc1cc(N[C@@H]2CCCN(C(=O)CO)C2)nc(-c2cnn3ccccc23)n1` [Example 94, 2-{(3R)-3-[(6-Methoxy-2-pyrazolo[1,5-a]pyridin-3-ylpyrimidin-4-yl)amino]piperidin-1-yl}-2-oxoethanol], the half-inhibitory concentration (IC50) on JAK3 was determined as 7 nM; at JAK2 it was 1 nM; at JAK1 it was 7 nM.

On to `COCCOc1cc(N[C@@H]2CCCN(C(=O)CO)C2)nc(-c2cnn3ccccc23)n1` [Example 96, 2-((3R)-3-{[6-(2-Methoxyethoxy)-2-pyrazolo[1,5-a]pyridin-3-ylpyrimidin-4-yl]amino}piperidin-1-yl)-2-oxoethanol], for which the results for the IC50 at JAK3, on JAK2 and against JAK1 were 2 nM, 1 nM and 6 nM, respectively.

On to `COCCOc1cc(N[C@@H]2CCCN(C(=O)CC#N)C2)nc(-c2cnn3ccccc23)n1` [Example 97, 3-((3R)-3-{[6-(2-Methoxyethoxy)-2-pyrazolo[1,5-a]pyridin-3-ylpyrimidin-4-yl]amino}piperidin-1-yl)-3-oxopropanenitrile], for which the values for the IC50 against JAK3, against JAK2 and on JAK1 were 1 nM, 1 nM and 2 nM, respectively.

For `Cc1ccc(-c2cc(N[C@@H]3CCCN(C(=O)CO)C3)nc(-c3cnn4ccccc34)n2)cn1` [Example 99, 2-((3R)-3-{[6-(6-Methylpyridin-3-yl)-2-pyrazolo[1,5-a]pyridin-3-ylpyrimidin-4-yl]amino}piperidin-1-yl)-2-oxoethanol], the concentration for half-maximal inhibition (IC50) worked out at 7 nM on JAK3, 9 nM at JAK2 and 2 nM against JAK1.

With `Cc1ccc(-c2cc(N[C@@H]3CCCN(C(=O)CC#N)C3)nc(-c3cnn4ccccc34)n2)cn1` [Example 100, 3-((3R)-3-{[6-(6-Methylpyridin-3-yl)-2-pyrazolo[1,5-a]pyridin-3-ylpyrimidin-4-yl]amino}piperidin-1-yl)-3-oxopropanenitrile], the IC50 on JAK3 turned out to be 2 nM; on JAK2, 2 nM; at JAK1 it was 0.5 nM.

For the molecule `Cc1cc(-c2cc(N[C@@H]3CCCN(C(=O)CO)C3)nc(-c3cnn4ccccc34)n2)cc(C)n1` [Example 101, 2-((3R)-3-{[6-(2,6-Dimethylpyridin-4-yl)-2-pyrazolo[1,5-a]pyridin-3-ylpyrimidin-4-yl]amino}piperidin-1-yl)-2-oxoethanol], the values for the IC50 at JAK3, on JAK2 and on JAK1 were 1 nM, 1 nM and 2 nM, respectively.

`Cc1cc(-c2cc(N[C@@H]3CCCN(C(=O)CC#N)C3)nc(-c3cnn4ccccc34)n2)cc(C)n1` [Example 102, 3-((3R)-3-{[6-(2,6-Dimethylpyridin-4-yl)-2-pyrazolo[1,5-a]pyridin-3-ylpyrimidin-4-yl]amino}piperidin-1-yl)-3-oxopropanenitrile]: the IC50 turned out to be 5 nM against JAK3, 2 nM at JAK2 and 1 nM against JAK1.

As to `N#CCC(=O)N1CCC[C@@H](Nc2cc(OCCO)nc(-c3cnn4ccccc34)n2)C1` [Example 103, 3-((3R)-3-{[6-(2-Hydroxyethoxy)-2-pyrazolo[1,5-a]pyridin-3-ylpyrimidin-4-yl]amino}piperidin-1-yl)-3-oxopropanenitrile], the IC50 against JAK3, at JAK2 and on JAK1 was 1 nM throughout.

In the case of `N#Cc1cnc(N2CCC[C@@H](Nc3cc(OCCO)nc(-c4cnn5ccccc45)n3)C2)cn1` [Example 104, 5-((3R)-3-{[6-(2-Hydroxyethoxy)-2-pyrazolo[1,5-a]pyridin-3-ylpyrimidin-4-yl]amino}piperidin-1-yl)pyrazine-2-carbonitrile], the results for the IC50 on JAK3, against JAK2 and against JAK1 were 1 nM, 3 nM and 4 nM, respectively.

As to `O=C(CO)N1CCC[C@@H](Nc2cc(-c3cncc(O)c3)nc(-c3cnn4ccccc34)n2)C1` [Example 105, 5-(6-{[(3R)-1-Glycoloylpiperidin-3-yl]amino}-2-pyrazolo[1,5-a]pyridin-3-ylpyrimidin-4-yl)pyridin-3-ol], the values for the 50% inhibitory concentration (IC50) against JAK3, against JAK2 and against JAK1 were 5 nM, 5 nM and 2 nM, respectively.

`N#CCC(=O)N1CCC[C@@H](Nc2cc(-c3cncc(O)c3)nc(-c3cnn4ccccc34)n2)C1` [Example 106, 3-((3R)-3-{[6-(5-Hydroxypyridin-3-yl)-2-pyrazolo[1,5-a]pyridin-3-ylpyrimidin-4-yl]amino}piperidin-1-yl)-3-oxopropanenitrile]: the concentration for half-maximal inhibition (IC50) on JAK3, against JAK2 and on JAK1 was 1 nM each time.

As to “(5-{(3R)-3-[(5-fluoro-6-methoxy-2-pyrazolo[1,5-a]pyridin-3-ylpyrimidin-4-yl)amino]piperidin-1-yl}pyrazin-2-yl)methanol [Example 55]”, the IC50 against JAK3 was determined as 33 nM; against JAK2, 12 nM; against JAK1, 170 nM.

For the molecule “[Trans-4-({6-[2-(dimethylamino)ethoxy]-5-fluoro-2-pyrazolo[1,5-a]pyridin-3-ylpyrimidin-4-yl}amino)cyclohexyl]acetonitrile [Example 10]”, the values for the IC50 on JAK3, against JAK2 and on JAK1 were 0.7 nM, 0.5 nM and 32 nM, respectively.

(Values after patent publication US10759793B2, “2-(pyrazolopyridin-3-yl)pyrimidine derivatives as JAK inhibitors” (ALMIRALL, S.A., priority 2015, dated 2020).)
